Patent US10022453B2 (BAYER PHARMA AKTIENGESELLSCHAFT, priority 2013, dated 2018)

Columns and labels:
NCI-H292 = test: Cytotoxic effects, MTT assay; format: cell-based; conditions: Homo sapiens, 72 h incubation
Method: The cells are cultivated by a standard method, as indicated in the […] (ATCC) for the respective cell lines.
At the end of the selected incubation time, the MTT reagent is incubated with the cells for 4 h, followed by lysis of the cells overnight by addition of the detergent. […] The proliferation of cells which were not treated with test substance but were otherwise identically treated was defined as the 100% figure.

[1] = molecular target: T1, human kinesin spindle protein KSP/Eg5 (Homo sapiens, UniProt P52732); test: Inhibition of the kinesin spindle protein KSP/Eg5 (ATPase, malachite green); format: biochemical; conditions: 10 nM KSP motor domain, 500 μM ATP, 2 h RT
T1 construct: The motor domain of the human kinesin spindle protein KSP/Eg5; purchased tebu-bio/Cytoskeleton Inc 027EG01-XL
T1 sequence (P52732 18-359 limits assumed): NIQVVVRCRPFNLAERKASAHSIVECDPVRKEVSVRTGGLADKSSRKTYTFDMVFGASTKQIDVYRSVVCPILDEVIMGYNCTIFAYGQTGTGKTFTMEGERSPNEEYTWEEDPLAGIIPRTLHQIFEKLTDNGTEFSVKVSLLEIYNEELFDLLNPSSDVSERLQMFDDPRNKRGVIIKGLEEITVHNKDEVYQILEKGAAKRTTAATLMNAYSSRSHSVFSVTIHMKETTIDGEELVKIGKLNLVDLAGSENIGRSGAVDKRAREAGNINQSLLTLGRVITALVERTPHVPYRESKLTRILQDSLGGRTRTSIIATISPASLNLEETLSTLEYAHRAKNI
Summary of the method: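 KSP/Eg5 motor domain (10 nM) preincubated 5 min at RT with 50 μg/ml taxol-stabilized bovine or porcine microtubules in 15 mM PIPES pH 6.8, 5 mM MgCl2, 10 mM DTT. IC50 = mean of three experiments.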

[2] = Cell permeability, flux assay using Caco-2 cells; conditions: human, Caco-2

SMILES	IC50 (NCI-H292)	IC50 [1]	Papp B→A at 2 h [2]	efflux ratio at 2 h [2]
CC(C)(C)[C@H](c1nc(-c2cc(F)ccc2F)cn1Cc1ccccc1)N(CC[C@H](N)C(=O)NCCC(=O)NCCN1C(=O)CC(SC[C@H](N)C(=O)O)C1=O)C(=O)CO.O=C(O)C(F)(F)F (stereo partly drawn) [Example 130, S-(1-{2-[(N-{(2S)-2-Amino-4-[{(1R)-1-[1-benzyl-4-(2,5-difluorophenyl)-1H-imidazol-2-yl]-2,2-dimethylpropyl}(glycoloyl)amino]butanoyl}-beta-alanyl)amino]ethyl}-2,5-dioxopyrrolidin-3-yl)-L-cysteine/trifluoroacetic acid (1:1)]	178 nM	1.66 nM	1 ×10⁻⁶ cm/s	6.7
CC(C)(C)[C@H](c1nn(-c2cc(F)ccc2F)cc1Cc1ccccc1)N(CC[C@H](N)C(=O)NCCNC(=O)CN1C(=O)CC(SC[C@H](N)C(=O)O)C1=O)C(=O)CO.O=C(O)C(F)(F)F (stereo partly drawn) [Example 131, S-[1-(2-{[2-({(2S)-2-Amino-4-[{(1R)-1-[4-benzyl-1-(2,5-difluorophenyl)-1H-pyrazol-3-yl]-2,2-dimethylpropyl}(glycoloyl)amino]butanoyl}amino)ethyl]amino}-2-oxoethyl)-2,5-dioxopyrrolidin-3-yl]-L-cysteine/trifluoroacetic acid (1:1)]	≥ 500 nM	1.24 nM	0.9 ×10⁻⁶ cm/s	10
C[C@H](NC(=O)CCNC(=O)[C@@H](N)CCN(C(=O)CO)[C@@H](c1nn(-c2cc(F)ccc2F)cc1Cc1ccccc1)C(C)(C)C)C(=O)N[C@@H](CCCNC(N)=O)C(=O)Nc1ccc(N2C(=O)CC(SC[C@H](N)C(=O)O)C2=O)cc1.O=C(O)C(F)(F)F (stereo partly drawn) [Example 132, N-{(2S)-2-Amino-4-[{(1R)-1-[4-benzyl-1-(2,5-difluorophenyl)-1H-pyrazol-3-yl]-2,2-dimethylpropyl}(glycoloyl)amino]butanoyl}-beta-alanyl-L-alanyl-N-[4-(3-{[(2R)-2-amino-2-carboxyethyl]sulphanyl}-2,5-dioxopyrrolidin-1-yl)phenyl]-N^5-carbamoyl-L-ornithinamide/trifluoroacetic acid (1:1)]	≥ 500 nM	1.65 nM	0.16 ×10⁻⁶ cm/s	1
CC(C)(C)[C@H](c1cc(-c2cc(F)ccc2F)cn1Cc1ccccc1)N(CC[C@H](N)C(=O)NCCC(=O)NCCN1C(=O)CC(SC[C@H](N)C(=O)O)C1=O)C(=O)CO.O=C(O)C(F)(F)F (stereo partly drawn) [Example 133, S-(1-{2-[(N-{(2S)-2-Amino-4-[{(1R)-1-[1-benzyl-4-(2,5-difluorophenyl)-1H-pyrrol-2-yl]-2,2-dimethylpropyl}(glycoloyl)amino]butanoyl}-beta-alanyl)amino]ethyl}-2,5-dioxopyrrolidin-3-yl)-L-cysteine/trifluoroacetic acid (1:1)]	155 nM	4.13 nM	0.43 ×10⁻⁶ cm/s	6
CC(C)[C@H](NC(=O)CCCCCN1C(=O)CC(SC[C@H](N)C(=O)O)C1=O)C(=O)N[C@@H](CCCNC(N)=O)C(=O)N[C@@H](CCCCNC(=O)[C@@H](N)CCN(C(=O)CO)[C@@H](c1nn(-c2cc(F)ccc2F)cc1Cc1ccccc1)C(C)(C)C)C(=O)O (stereo partly drawn) [Example 134, N-[6-(3-{[(2R)-2-Amino-2-carboxyethyl]sulphanyl}-2,5-dioxopyrrolidin-1-yl)hexanoyl]-L-valyl-N^5-carbamoyl-L-ornithyl-N^6-{(2S)-2-amino-4-[{(1R)-1-[4-benzyl-1-(2,5-difluorophenyl)-1H-pyrazol-3-yl]-2,2-dimethylpropyl}(glycoloyl)amino]butanoyl}-L-lysine/trifluoroacetic acid (1:1)]	≥ 500 nM	4.35 nM	0.29 ×10⁻⁶ cm/s	0.5
CC(C)(C)[C@H](c1nn(-c2cc(F)ccc2F)cc1Cc1ccccc1)N(CC[C@H](N)C(=O)NCCNC(=O)CSC[C@H](N)C(=O)O)C(=O)CO.O=C(O)C(F)(F)F [Example 136, S-(2-{[2-({(2S)-2-Amino-4-[{(1R)-1-[4-benzyl-1-(2,5-difluorophenyl)-1H-pyrazol-3-yl]-2,2-dimethylpropyl}(glycoloyl)amino]butanoyl}amino)ethyl]amino}-2-oxoethyl)-L-cysteine/trifluoroacetic acid (1:1)]	≥ 500 nM	0.328 nM	0.91 ×10⁻⁶ cm/s	8.5
CC(C)(C)[C@H](c1nn(-c2cc(F)ccc2F)cc1Cc1ccccc1)N(CC[C@H](N)C(=O)NNC(=O)CCCCCN1C(=O)CC(SC[C@H](N)C(=O)O)C1=O)C(=O)CO.O=C(O)C(F)(F)F (stereo partly drawn) [Example 137, S-{1-[6-(2-{(2S)-2-Amino-4-[{(1R)-1-[4-benzyl-1-(2,5-difluorophenyl)-1H-pyrazol-3-yl]-2,2-dimethylpropyl}(glycoloyl)amino]butanoyl}hydrazino)-6-oxohexyl]-2,5-dioxopyrrolidin-3-yl}-L-cysteine/trifluoroacetic acid (1:1)]	≥ 500 nM	0.778 nM	1.7 ×10⁻⁶ cm/s	19
CC(C)(C)[C@H](c1cc(-c2cc(F)ccc2F)cn1Cc1ccccc1)N(CC[C@H](N)C(=O)NCCN1C(=O)CC(SC[C@H](N)C(=O)O)C1=O)C(=O)CO.O=C(O)C(F)(F)F.O=C(O)C(F)(F)F (stereo partly drawn) [Example 139, S-{(3R/S)-1-[2-({(2S)-2-amino-4-[{(1R)-1-[1-benzyl-4-(2,5-difluorophenyl)-1H-pyrrol-2-yl]-2,2-dimethylpropyl}(glycoloyl)amino]butanoyl}amino)ethyl]-2,5-dioxopyrrolidin-3-yl}-L-cysteine/trifluoroacetic acid (1:2)]	134 nM	1.82 nM	2.1 ×10⁻⁶ cm/s	7.7
CC(C)(C)[C@H](c1cc(-c2cc(F)ccc2F)cn1Cc1ccccc1)N(CCCN)C(=O)CSCCCCCC(=O)NCCN1C(=O)CC(SC[C@H](N)C(=O)O)C1=O.O=C(O)C(F)(F)F.O=C(O)C(F)(F)F (stereo partly drawn) [Example 141, S-[(3R/S)-1-(2-{[6-({2-[(3-aminopropyl) {(1R)-1-[1-benzyl-4-(2,5-difluorophenyl)-1H-pyrrol-2-yl]-2,2-dimethylpropyl}amino]-2-oxoethyl}sulphanyl)hexanoyl]amino}ethyl)-2,5-dioxopyrrolidin-3-yl]-L-cysteine/trifluoroacetic acid (1:2)]	16.1 nM	0.902 nM	3 ×10⁻⁶ cm/s	35
CC(C)(C)[C@H](c1cc(-c2cc(F)ccc2F)cn1Cc1ccccc1)N(CC[C@H](N)C(=O)N[C@H]1CC[C@@H](C(=O)NCCN2C(=O)CC(SC[C@H](N)C(=O)O)C2=O)C1)C(=O)CO.O=C(O)C(F)(F)F (stereo partly drawn) [Example 157, S-{1-[2-({[(1R,3S)-3-({(2S)-2-Amino-4-[{(1R)-1-[1-benzyl-4-(2,5-difluorophenyl)-1H-pyrrol-2-yl]-2,2-dimethylpropyl}(glycoloyl)amino]butanoyl}amino)cyclopentyl]carbonyl}amino)ethyl]-2,5-dioxopyrrolidin-3-yl}-L-cysteine/trifluoroacetic acid (1:1)]	≥ 500 nM	9.61 nM	0.77 ×10⁻⁶ cm/s	7.2
C[C@@H](NC(=O)[C@@H](N)CCN(C(=O)CO)[C@@H](c1nc(-c2cc(F)ccc2F)cn1Cc1ccccc1)C(C)(C)C)C(=O)NCCCC[C@H](N)C(=O)O.O=C(O)C(F)(F)F [Example 159, N^6-(N-{(2S)-2-Amino-4-[{(1R)-1-[1-benzyl-4-(2,5-difluorophenyl)-1H-imidazol-2-yl]-2,2-dimethylpropyl}(glycoloyl)amino]butanoyl}-D-alanyl)-L-lysine/trifluoroacetic acid (1:1)]	114 nM	0.311 nM	0.7 ×10⁻⁶ cm/s	6.1
CC(C)[C@H](NC(=O)CCCCCN1C(=O)CC(SC[C@H](N)C(=O)O)C1=O)C(=O)N[C@@H](C)C(=O)N[C@@H](CCCCNC(=O)CCNC(=O)[C@@H](N)CCN(C(=O)CO)[C@@H](c1cc(-c2cc(F)ccc2F)cn1Cc1ccccc1)C(C)(C)C)C(=O)O (stereo partly drawn) [Example 160, N^6-(N-{(2S)-2-Amino-4-[{(1R)-1-[1-benzyl-4-(2,5-difluorophenyl)-1H-pyrrol-2-yl]-2,2-dimethylpropyl}(glycoloyl)amino]butanoyl}-beta-alanyl)-N^2-N-{[6-(3-{[(2R)-2-amino-2-carboxyethyl]sulfanyl}-2,5-dioxopyrrolidin-1-yl)hexanoyl]-L-valyl-L-alanyl}-L-lysine/trifluoroacetic acid (1:1)]	≥ 500 nM	0.681 nM	0.16 ×10⁻⁶ cm/s	1
CC(C)(C)[C@H](c1cc(-c2cc(F)ccc2F)cn1Cc1ccccc1)N(CC[C@H](N)C(=O)NCCN)C(=O)CO.O=C(O)C(F)(F)F [Example 198]	19.5 nM	10.7 nM	51.9 ×10⁻⁶ cm/s	34
